From US9993492B2, “Lysophospholipids and lysophospholipid analogues against honeybee brood diseases” (University of Graz, priority 2013, dated 2018) come the findings set out here.

In series [1] the test system is spores of Paenibacillus larvae. The series can be described thus: Spore assay in BHI liquid medium with plating for CFU. It counts as cell-based. The conditions noted are these: lowest investigated dose (5 ppm); 114.6±28.4 spores per vial; 4 and 6 days. As for the experimental part: A stock solution containing spores at a known concentration is used to inoculate c. 100 spores/mL medium. This assay is carried out in 20 mL cultivation tubes containing 1.0 mL of BHI (brain heart infusion) liquid medium. To this medium containing c. […] spores, test compounds are added at different concentrations (e.g., 2, 5 and 10 ppm), together with positive control (penicillin G at 5 ppm) and blank control.
To verify inoculation with c. 100 spores/mL, tubes containing BHI+spores are plated out immediately on agar plates to assess the number of colony forming units (CFU) after 6 days of incubation at 34.5° C.
For the control of viability of the spores, the turbidity (due to germination of spores and formation of vegetative forms) of tubes containing BHI+spores is evaluated on day 4.
For the test probes, bacterial growth is evaluated on day 4 and 6. For those tubes which are negative for bacterial growth, the whole medium (c. 1 mL) is plated onto agar plates and evaluated for CFUs after 2 and 6 days of incubation. CFUs visible after two days result from vegetative forms, while CFUs appearing after […] stem from spores.
The results of these tests allow identifying whether the tested compounds have an effect on spore germination in liquid medium and the viability of the spores as assessed by their germination on agar plates. […]

A further series concerns honeybee larvae. Briefly: LPC tolerance in non-infected artificially reared larvae, mortality until day 12. It counts as in vivo, Apis mellifera. The conditions noted are these: LPC 10 μg/larva on day 1, 2 and 3, no spores, replicates separated by /, Nlarvae 70/48/47/48/40.

As for `CCCCCCCC/C=C\CCCCCCCC(=O)OC[C@@H](O)COP(=O)([O-])OCC[N+](C)(C)C` [1-O-oleoyl-sn-glycero-3-phosphocholine], the “killing of vegetative forms upon germination of spores” value in series [1] was “all vegetative forms are killed”. Also, the Ndead larvae total in the series on honeybee larvae (days 1-12) is on record as 9/6/5/3/3. Moreover, in the series with honeybee larvae, the “Ndead larvae day 1” value is given as 0/0/0/0/0, the “Ndead larvae day 2” value is listed as 0/2/0/0/0, the “Ndead larvae day 3” value is given as 0/0/3/0/0 and the “Ndead larvae day 4” value was 1/0/1/0/1. In the series on honeybee larvae, the “Ndead larvae day 5” value was 0/0/0/0/0, the “Ndead larvae day 6” value is listed as 1/1/0/0/1, the “Ndead larvae day 7” value is on record as 0/0/1/0/0 and the “Ndead larvae day 8” value is listed as 2/0/0/0/0. In addition, in the series on honeybee larvae, the “Ndead larvae day 9” value was 1/2/0/3/0, the “Ndead larvae day 10” value is 2/0/0/0/0, the “Ndead larvae day 11” value is 0/1/0/0/1 and the “Ndead larvae day 12” value is reported as 2/0/0/0/0.
